From patent US11254958B1, “Metabolic engineering of E coli with thio-phosphate” (priority 2018, dated 2022)
“And” between values parts separate entries of the source, which are not always exact repeats. Equal values may be shown once. “Also recorded” adds a separate entry of the source.

Key:
[1] = system: E coli; conditions: cited from earlier work
[2] = system: E. coli K-12; assay: RNA seq analysis of total RNA (FPKM); assay type: cell-based; parameters: hisA transcript elevation / FabB transcript elevation / TesA transcript elevation / FabD transcript elevation / FabH transcript elevation / ftsI transcript elevation / idtC transcript elevation / idtB transcript elevation: unit not given here
Method: (§1) E coli K12 bacteria were grown in high citrate minimal media with 5.4 g/L of thiophosphate or 2.4 g/L of Na2HPO4 for up to 12 hrs. The use of high citrate media was chosen to help lower the total amount of thiophosphate needed for growth when compared to regular M9 media (1). The media is prepared as follows: thiophosphate, 5.4 g/L; KCL 1.5 g/L; (NH4)2SO4, 2 g/L; sodium citrate 2H2O, 10 g/L. Adjust the pH to 7.5 and sterile filter the solution. Then add the following: MgSO4-7H2O, 0.2 g/L (sterilized separately as a conc. solution); glucose, 2 g/L sterilized separately by filtration). Glucose can also be sterilized by autoclaving separately. CaCl2 (11 mg/L) is also be added as needed.
For RNA seq analysis the RNA library was prepared using Illumina's TruSeq Stranded mRNA library prep (Illumina, 2010) without selection. The sequencing platform was HiSeq 2500 with a read format of PE 2×150. The coverage was at least 40 million per sample without rRNA depletion. A custom software build (Omegabioservice) of rRNA and tRNA sequences for reference mapping was used to more rapidly map rRNA sequences and avoid compression.
To get some idea of the impact of RNA stabilization via thiophosphate on specific mRNAs, RNA seq results were analyzed as FPKM (fragments per kilobase pair million) out of all reads including rRNA. This study was designed to give an absolute comparison rather than a relative comparison of transcript levels in total RNA. For control cells a total of 43 million reads of 150 bp in length were analyzed while 73.9 million reads were used in thiophosphate treated samples. The reads were mapped to a reference genome, E. coli K-12 substr. MG1655. One of the first things noticed was that many genes were not detected in both treated and control samples. Some of these absences were undoubtedly due to the low coverage resulting from the presence of numerous ribosomal RNA sequences in the preparations. However, even some transcripts readily detected by microarray analysis were not present. Other transcripts were not assessed due to their high copy number and the need for protracted computational time to quantitate. The second thing that was most obvious when comparing the two samples was there were many changes both positive and negative in the levels of transcripts for different genes. The results pointed to significant transcriptional changes induced secondarily via the general stabilization of RNA in vivo with thiophosphate.

[3] = system: E. coli K12 and JM109 strains; assay: Morphological changes by bright field microscopy; assay type: cell-based
Method: as §1
To see if any morphological changes were occurring the bacteria were examined using bright field microscopy. […] To test whether this morphology was due to a nutritional deficiency K12 cells were grown in LB broth with 2.7 g of thiophosphate per liter.
In this media, filaments were detected by 8 hrs and by 2 hrs paired bacteria could be seen, as before with minimal media. In the 8 hr sample, however, the view was more mixed compared to that seen with minimal media, as both filamentous bacteria and some shorter and more normal appearing bacteria were observed.

[4] = semi-synthetic media containing thiophosphate with amino acids added

OP(O)(O)=S [thio-phosphate]
protein spots significantly changed ([1]; previous studies): 28%
average fold change of proteins ([1]; prior protein results): ~5 × fold
proteins decreased ([1]; prior protein results): 13%
proteins increased ([1]; prior protein results): 15%
maximum decrease observed [2]: 1550 ×
median fold change, transcripts for 18 of the most abundant proteins [2]: 1.55 × fold
median fold decrease of decreased genes [2]: 2.4
median fold increase of increased genes [2]: 2.75
transcript level of the 2 out of 18 abundant-protein genes showing reduction [2]: 80 % of normal
genes expressed at low levels showing negative fold changes in mRNA ([2]; 12 genes expressed at low levels): 58%
transcripts showing negative fold changes, average stability mRNA class ([2]; 33 mRNAs, half-lives between 5-7 mins, platform not given): 30%
transcripts showing negative fold changes, unstable mRNA class ([2]; 33 mRNAs, half-lives of 3 mins or less, platform not given): 36%
transcripts showing negative fold changes, stable mRNA class ([2]; 33 mRNAs, half-lives of 11 mins or more, platform not given): 36%
fold increase in total FPKM counts ([2]; 4,311 E. coli genes, vs controls): 1.37 × fold
FabB transcript elevation ([2]; RNA seq): 98
FabD transcript elevation ([2]; RNA seq): 3.1
FabH transcript elevation ([2]; RNA seq): 10.5
Leu A transcript fold reduction ([2]; RNA seq): ~500 × fold
Leu C transcript fold reduction ([2]; RNA seq): ~500 × fold
Leu D transcript fold reduction ([2]; RNA seq): ~500 × fold
TesA transcript elevation ([2]; RNA seq): 3.5
accA transcript elevation ([2]; RNA seq): 19.8 ×
accC transcript elevation ([2]; RNA seq): 6.2 ×
accD transcript elevation ([2]; RNA seq): 3.39 × and 3.4 ×
adk transcript fold elevation ([2]; RNA seq): 3.4 × fold
aidB transcript fold elevation ([2]; RNA seq): 4-6 × fold
bacA transcript elevation ([2]; RNA seq): 12 ×
cysK transcript reduction ([2]; RNA seq): SOX
cysM transcript reduction ([2]; RNA seq): 292 ×
ddlB transcript increase ([2]; RNA seq): 30 ×
dusB transcript fold elevation ([2]; RNA seq): 1.18
dxs transcript fold increase ([2]; RNA seq): 101
hisA transcript elevation ([2]; RNA seq): 6.2
hisB transcript elevation ([2]; RNA seq): 162 ×
hisC transcript elevation ([2]; RNA seq): 117 ×
hisD transcript elevation ([2]; RNA seq): 10.9 ×
hisG transcript elevation ([2]; RNA seq): 4.6 ×
hisH transcript elevation ([2]; RNA seq): 28 ×
hisI transcript elevation ([2]; RNA seq): 5 ×
idi transcript fold increase ([2]; RNA seq): 3.57
infB transcript fold elevation ([2]; RNA seq): 3 × fold
ispA transcript elevation ([2]; RNA seq): 154 ×
ispD transcript fold increase ([2]; RNA seq): 2
ispE transcript fold increase ([2]; RNA seq): 1.8
ispF transcript fold increase ([2]; RNA seq): 2.6
ispH transcript fold increase ([2]; RNA seq): 2.2
katE transcript fold elevation ([2]; RNA seq): 4-6 × fold
murC transcript increase ([2]; RNA seq): 26 ×
murD transcript increase ([2]; RNA seq): 144 ×
murE transcript increase ([2]; RNA seq): 152 ×
murF transcript increase ([2]; RNA seq): 250 ×
murG transcript increase ([2]; RNA seq): 199 ×
otsA transcript fold elevation ([2]; RNA seq): 4-6 × fold
prsA transcript elevation ([2]; RNA seq): < 2 ×
pyrG transcript fold elevation ([2]; RNA seq): 2.1 × fold
pyrH transcript fold elevation ([2]; RNA seq): 3.5 × fold
rpoS transcript fold elevation ([2]; RNA seq): 2.3 × fold
rsfs transcript fold decrease ([2]; RNA seq): 19 × fold
trpA transcript elevation ([2]; RNA seq): 1049 ×
trpB transcript elevation ([2]; RNA seq): 1955 ×
trpC transcript elevation ([2]; RNA seq): 606 ×
trpD transcript elevation ([2]; RNA seq): 443 ×
trpE transcript elevation ([2]; RNA seq): 541 ×
tryD transcript elevation ([2]; RNA seq): 443 ×
ybaY transcript fold elevation ([2]; RNA seq): 4-6 × fold
ycih transcript fold elevation ([2]; RNA seq): 8 × fold
yqgf transcript elevation ([2]; RNA seq): 4.64 ×
ftsI transcript elevation ([2]; RNA seq (value in parentheses)): 109
idtB transcript elevation ([2]; RNA seq (value in parentheses)): 164
idtC transcript elevation ([2]; RNA seq (value in parentheses)): 3.6
tRNA synthetases average increase ([2]; RNA seq, 13 tRNA synthetases detected): 11.7 × fold
CspA transcript fold increase ([2]; RNA seq, vs control): 1.6 × fold
nusA transcript fold increase ([2]; RNA seq, vs control): 3 × fold
average fold decrease of decreased genes ([2]; SD 93): 20.4
average fold increase of increased genes ([2]; SD 291): 44 × fold
fold increase in mRNA or non-ribosomal RNA ([2]; after correcting for expected control reading of 82% for rRNA): 2.75 × fold
fraction of reads that were rRNA ([2]; custom build of E. coli rRNA sequences): 68.7%
median positive fold change, average mRNA class ([2]; platform not given): 2.6 ×
median positive fold change, stable mRNA class ([2]; platform not given): 2.7 ×
median positive fold change, unstable mRNA class ([2]; platform not given): 1.6 ×
ribD, ribB, ribE and ribF gene transcripts ([2]; platform not given): did not appear to be significantly elevated
Nlpl fold decrease ([2]; printed as protein, platform not given): 32 × fold
cdsA mRNA increase ([2]; value in parentheses (RNA seq)): 21 ×
morphology ([3]; K12, LB broth with 2.7 g of thiophosphate per liter, 12 hrs): Filamentous growth was not observed; also recorded: paired phenotype
morphology ([3]; K12, LB broth with 2.7 g of thiophosphate per liter, 12 hrs, listed as TP): paired phenotype
morphology ([3]; K12 and JM109, minimal thiophosphate media, 12 hrs): distinct filamentous morphology
morphology ([3]; K12 and JM109, minimal thiophosphate media, 12 hrs, listed as TP): filamentous phenotype
morphology ([3]; K12 and JM109, thiophosphate media, 2 hrs): appeared as pairs
growth [3, 4]: good growth
morphology [3, 4]: mixed with both long filamentous and shorter bacterial cells
